# Where two headings read alike, the source gives them in different places.
# Key:
# [1] = test system: N. meningitidis serogroup B strain NZ98; test: In vivo enhancement of immune response to 3MenB vaccine, serum bactericidal antibody (SBA) titer; conditions: for protective response in the mice (SBA titer of >1000 correlates with protection): 100 μg compound with 3MenB/MF59, NZ98 strain
# Description: In a second experiment, the dose response of one compound, Example No. 47, was tested using the same protocol. […] The SBA titers were measured in all cases using the standard CFU method. The dose of each compound in μg is indicated on the left of FIG. 2.
# FIG. 5 summarizes the data from the six total experiments. A titer of >1000 correlates with immunization providing protection against the pathogen tested in the SBA titer (i.e., the NZ/98 N. meningitidis serogroup B strain).
# human TLR8 = target: T1, human TLR8 (Homo sapiens, UniProt Q9NR97); test: Reporter gene assay, HEK293-TLR8 (NF-kB-driven luciferase); format: cell-based; conditions: HEK293-TLR8; read-out: EC50 in HEK293-TLR8 assay
# T1 construct: expressed in transfected cells; host or cells: HEK 293
# T1 sequence (Q9NR97 27-1041): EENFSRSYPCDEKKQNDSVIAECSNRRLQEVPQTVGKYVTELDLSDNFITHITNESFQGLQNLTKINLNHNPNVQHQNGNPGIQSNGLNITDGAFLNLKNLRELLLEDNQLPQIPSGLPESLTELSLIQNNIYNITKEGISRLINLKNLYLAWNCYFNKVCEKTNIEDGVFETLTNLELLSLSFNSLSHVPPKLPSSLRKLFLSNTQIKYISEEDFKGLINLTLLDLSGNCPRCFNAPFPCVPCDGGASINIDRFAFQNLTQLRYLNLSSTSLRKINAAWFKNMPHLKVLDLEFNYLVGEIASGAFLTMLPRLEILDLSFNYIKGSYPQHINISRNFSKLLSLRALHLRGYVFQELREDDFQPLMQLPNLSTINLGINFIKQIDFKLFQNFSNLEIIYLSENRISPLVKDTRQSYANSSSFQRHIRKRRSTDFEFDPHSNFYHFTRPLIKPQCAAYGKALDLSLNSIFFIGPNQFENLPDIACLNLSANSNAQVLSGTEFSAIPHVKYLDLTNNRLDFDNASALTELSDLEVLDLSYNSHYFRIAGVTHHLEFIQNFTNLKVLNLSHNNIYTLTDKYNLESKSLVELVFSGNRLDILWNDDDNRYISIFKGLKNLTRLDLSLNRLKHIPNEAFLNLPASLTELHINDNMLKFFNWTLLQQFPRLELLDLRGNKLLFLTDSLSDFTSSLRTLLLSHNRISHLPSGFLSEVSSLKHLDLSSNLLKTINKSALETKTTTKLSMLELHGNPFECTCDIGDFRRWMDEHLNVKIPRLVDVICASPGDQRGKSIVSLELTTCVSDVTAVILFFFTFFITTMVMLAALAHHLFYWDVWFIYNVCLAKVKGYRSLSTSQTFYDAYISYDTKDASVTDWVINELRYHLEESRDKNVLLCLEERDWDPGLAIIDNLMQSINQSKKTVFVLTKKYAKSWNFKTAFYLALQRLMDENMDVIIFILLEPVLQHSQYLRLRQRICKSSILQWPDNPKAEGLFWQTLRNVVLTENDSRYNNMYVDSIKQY
# Description: (§1) Human embryonic kidney 293 (HEK 293) cells are stably transfected with human TLR7 or TLR8 and an NF-kB-driven luciferase reporter vector (pNifty-Luciferase). As a control assay, normal Hek293 transfected with pNifty-Luc are used. Cells are cultured in DMEM supplemented with 2 mM L-glutamine, 10% heart inactivated FBS, 1% penicillin and streptomycin, 2 μg/ml puromycin (InvivoGen #ant-pr-5) and 5 μg/ml of blasticidin (Invitrogen #46-1120). Bright-Glo™ Luciferase assay buffer and substrate are supplied by Promega #E263B and #E264B (assay substrate and buffer respectively). 384 well clear-bottom plates are supplied by Greiner bio-one (#789163-G) and are GNF custom bar-coded plates.
# (§2) Cells are plated at 25,000 cells/well in 384-well plates in a final volume of 50 μl of media. Cells are allowed to adhere to the plates after overnight (18 hours) culture at 37° C. 5% CO2. Serially diluted experimental and positive control compounds are then dispensed to each well and incubated for 7 hours at 37° C. 5% CO2. Cells stimulated with DMSO alone also serve as negative controls. After the incubation, 30 μl of the pre-mix assay buffer and substrate buffer are added to each well according to manufacturer's instructions. The luminescence signal is read on a CLIPR machine with an integration time of 20 seconds per plate.
# (§3) Dose response curves are generated for each compound and EC50 values were determined as the concentration that gives 50% of the maximal signal.
# human TLR7 = target: T2, human TLR7 (Homo sapiens, UniProt Q9NYK1); test: Reporter gene assay, HEK293-TLR7 (NF-kB-driven luciferase); format: cell-based
# T2 construct: expressed in transfected cells; host or cells: HEK 293
# T2 sequence (Q9NYK1 27-1049): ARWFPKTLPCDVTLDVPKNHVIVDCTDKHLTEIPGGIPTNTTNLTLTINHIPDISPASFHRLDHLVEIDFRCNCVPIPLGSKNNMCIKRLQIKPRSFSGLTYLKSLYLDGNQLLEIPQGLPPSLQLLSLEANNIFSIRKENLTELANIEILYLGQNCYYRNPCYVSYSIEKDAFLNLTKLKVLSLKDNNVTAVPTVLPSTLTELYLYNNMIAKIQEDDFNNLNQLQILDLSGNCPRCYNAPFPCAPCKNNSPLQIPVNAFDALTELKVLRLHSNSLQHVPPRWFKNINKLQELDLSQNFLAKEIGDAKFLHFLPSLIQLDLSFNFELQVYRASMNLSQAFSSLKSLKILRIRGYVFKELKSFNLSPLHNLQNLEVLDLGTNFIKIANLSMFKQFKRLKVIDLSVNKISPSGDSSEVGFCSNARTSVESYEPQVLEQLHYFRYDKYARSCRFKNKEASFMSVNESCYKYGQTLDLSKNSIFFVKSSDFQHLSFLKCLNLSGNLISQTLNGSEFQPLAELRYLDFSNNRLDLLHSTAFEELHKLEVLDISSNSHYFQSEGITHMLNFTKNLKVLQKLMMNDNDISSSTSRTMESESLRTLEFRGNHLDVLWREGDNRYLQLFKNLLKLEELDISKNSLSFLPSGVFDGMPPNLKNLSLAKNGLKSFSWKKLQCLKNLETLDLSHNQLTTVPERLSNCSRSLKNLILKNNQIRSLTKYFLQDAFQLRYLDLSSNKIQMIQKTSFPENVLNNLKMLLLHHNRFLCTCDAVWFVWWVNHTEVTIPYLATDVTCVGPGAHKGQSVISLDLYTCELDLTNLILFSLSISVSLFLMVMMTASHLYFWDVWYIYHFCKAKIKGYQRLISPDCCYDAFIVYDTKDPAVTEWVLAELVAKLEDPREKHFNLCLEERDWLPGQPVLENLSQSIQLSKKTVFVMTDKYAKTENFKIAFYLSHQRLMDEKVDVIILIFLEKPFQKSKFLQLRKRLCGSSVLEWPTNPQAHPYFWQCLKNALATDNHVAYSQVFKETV
# Description: as §1, §2, §3
# human PBMC = test: Human peripheral blood mononuclear cell assay, IL-6 (IL-6 hPBMC); format: cell-based; conditions: IL-6 levels
# Description: The bioactivity of the described compounds are tested in the human peripheral blood assay (human PBMC) using a panel of independent normal human donors according to approved guidelines by the institutional review committee. Human PBMC are isolated from freshly peripheral blood using a Ficoll density gradient (GE healthcare 17-1440-03). 30-35 mLs of peripheral human blood are layered onto 15 mLs of Ficoll in 50 ml conical tubes, followed by centrifugation at 1800 rpm (Eppendorf Centrifuge 5810R with biohazard caps over the tube buckets) at room temperature for 30 minutes with no acceleration and no brake. The buffy layers are then collected and transferred onto new 50 ml conical tubes and washed twice in complete media consisting of RAMI 1640 (11875085 from Invitrogen Corporation, Carlsbad, Calif.) supplemented with 10% heat inactivated fetal bovine serum (Gibco 10099-141), 1% Pen-Strep (Gibco#15140-122), 1 mM non essential amino acids (Gibco#11140-050), 1 mM sodium pyruvate (Gibco#11360-070), 2 mM L-Glutamine (Gibco#25030-081) and 1 mM HEPES (Gibco#15630-080). Viable cells are then counted using trypan blue staining, plated in 96 well flat bottom plates (Becton Dickinson #353070) at 2×10^5 cells per well in 200 μl total volume of complete media. Compounds are then added in a 10 point dose response format starting at 100 μM, 3 fold dilution. Negative controls wells received equal concentration of DMSO. Culture supernatants are collected after 18-24 hours incubation at 37° C., 5% CO2, stored at −20° C. until further use.
# IL-6 levels in the culture supernatants are measured using a Luminex kit (Biorad). Data analysis is performed using Prism software from GraphPad (San Diego, Calif.). Dose response curves are generated for each compound and EC50 values are determined as the concentration that gives 50% of the maximal signal.
# [2] = HEK293-TLR7, read-out: EC50 in HEK293-TLR7 assay
SMILES,EC50 (human TLR8),EC50 (human TLR7; [2]),protective response in the mice (SBA titer of >1000 correlates with protection) [1],EC50 (human PBMC),"EC50 (human TLR7; TLR-7 stimulation, read-out: Human TLR-7 EC50)","difference in SBA titer, immunization with a CpG oligo versus the compound ([1]; mice, by p-value)"
"COc1ccc(CCc2cnc3c(N)nc4cc(C)ccc4c3c2)c(C)c1 [Example 49, 2-(4-methoxy-2-methylphenethyl)-8-methylbenzo[f][1,7]naphthyridin-5-amine]",,,protective response,,,
"Cc1ccc2c(c1)nc(N)c1ncccc12 [Example 5, 8-methylbenzo[f][1,7]naphthyridin-5-amine]",9.01 µM,15.8 µM,,0.396 µM,,
"Cc1ccc(CCc2cnc3c(N)nc4ccccc4c3c2)c(C)c1 [Example 47, 2-(2,4-dimethylphenethyl)benzo[f][1,7]naphthyridin-5-amine]",,,protective response,,0.361 µM,did not produce a statistically significant difference
"Cc1ccc2c(c1)nc(N)c1ncc(CCc3ccc(N(C)C)cc3)cc12 [Example 169, 2-(4-(dimethylamino)phenethyl)-8-methylbenzo[f][1,7]naphthyridin-5-amine]",,,protective response,,,
"Nc1nc2ccccc2c2cccnc12 [Example 1, Benzo[f][1,7]naphthyridin-5-amine]",14 µM,> 100 µM,,0.84 µM,,

# The next lines start with results.
EC50 (human TLR8),EC50 (human TLR7; [2]),SMILES,protective response in the mice (SBA titer of >1000 correlates with protection) [1],EC50 (human PBMC),"EC50 (human TLR7; TLR-7 stimulation, read-out: Human TLR-7 EC50)","difference in SBA titer, immunization with a CpG oligo versus the compound ([1]; mice, by p-value)"
13 µM,8.64 µM,"CCc1cnc2c(N)nc3ccccc3c2c1 [Example 30, 2-ethylbenzo[f][1,7]naphthyridin-5-amine]",,2.28 µM,,
,2.44 µM,"Nc1nc2ccccc2c2cc(CCc3ccccc3)cnc12 [Example 33, 2-phenethylbenzo[f][1,7]naphthyridin-5-amine]",,2.28 µM,,
37 µM,,"Nc1nc2cc(F)ccc2c2cccnc12 [Example 14, 8-fluorobenzo[f][1,7]naphthyridin-5-amine]",,6.38 µM,,
